In the assay the target is T1, GIPR (CHO-K1-hGIPR cells) (Homo sapiens, UniProt P48546).
T1 construct: host or cells: CHO-K1
T1 sequence (P48546 22-466): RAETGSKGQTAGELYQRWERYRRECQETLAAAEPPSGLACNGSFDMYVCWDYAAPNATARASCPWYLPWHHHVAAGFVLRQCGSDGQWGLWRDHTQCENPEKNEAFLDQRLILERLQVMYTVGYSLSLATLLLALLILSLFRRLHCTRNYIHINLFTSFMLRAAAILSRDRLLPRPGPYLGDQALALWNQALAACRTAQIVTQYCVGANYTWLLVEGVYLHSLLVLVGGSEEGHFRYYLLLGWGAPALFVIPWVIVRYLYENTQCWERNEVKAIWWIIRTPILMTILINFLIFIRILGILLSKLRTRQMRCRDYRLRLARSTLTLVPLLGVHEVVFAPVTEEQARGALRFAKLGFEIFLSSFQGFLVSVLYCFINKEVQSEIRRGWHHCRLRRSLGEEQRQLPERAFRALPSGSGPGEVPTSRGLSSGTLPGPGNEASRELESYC
The assay is described as follows: FACS binding assay. The conditions noted are these: competition with 20 nM GIP-057, 4° C., 1 hour. The method, boiled down:
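CHO-K1 cells expressing human GIPR, washed in PBS/1% FCS, then stained with 1 μg/mL APC-streptavidin for 30 min on ice.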
For orientation: In flow cytometry, cells or beads pass a laser one at a time.

[1] abbreviates: read-out: pIC50 Category (converted).

Molecules are shown by their SMILES. Read-outs that look alike come from different tables or passages of the source. *1 amine or outer side, *2 acyl side, *3 side chain or, on linkers, in order; H or OH if unused. Where a SMILES comes first, the peptide text is derived from it. Bridges are numbered along the chain shown (N, C = ends). [ ]: non-standard residue; d: D form. The star is where a group is joined. X14 = NC(=O)[C@H](CCCCNC(=O)CN1CCN2CCN3CCN(CC1)CC(=O)[O][In]([O]C(=O)C2)[O]C(=O)C3)NC(=O)CCC(=O)NCCCOCCOCCOCCCN*; X16 = NC(=O)[C@H](CCCCNC(=O)CN1CCN2CCN3CCN(CC1)CC(=O)[O][Lu]([O]C(=O)C2)[O]C(=O)C3)NC(=O)CCC(=O)NCCCOCCOCCOCCCN*; X13 = O=C(CN1CCN2CCN3CCN(CC1)CC(=O)[O][Lu]([O]C(=O)C2)[O]C(=O)C3)NCCCOCCOCCOCCCN*; DOTA(In) = O=C1CN2CCN3CCN(CC(=O)*)CCN(CC2)CC(=O)[O][In]([O]1)[O]C(=O)C3; DOTA(Lu) = O=C1CN2CCN3CCN(CC(=O)*)CCN(CC2)CC(=O)[O][Lu]([O]1)[O]C(=O)C3; NH(1-deoxy-D-glucityl) = OC[C@@H](O)[C@@H](O)[C@H](O)[C@@H](O)CN*; Trp(5-Cl) = N[C@@H](Cc1c[nH]c2ccc(Cl)cc12)C(=O)O; Pyridine(2,6-diCH2) = c1cc(C[*:1])nc(C[*:2])c1; 1Nal = N[C@@H](Cc1cccc2ccccc12)C(=O)O; mXylylene = c1cc(C[*:1])cc(C[*:2])c1; Glutaryl = O=C(CCCC(=O)[*:2])[*:1]; X6 = c1cc(CSCCN[*:2])nc(C[*:1])c1; Hyp = O=C(O)[C@@H]1C[C@@H](O)CN1; X1 = O=C(CN1CCC(N[*:1])CC1)[*:2]; Suc = O=C(CCC(=O)[*:2])[*:1]; Ac6c = NC1(C(=O)O)CCCCC1; Api = NC1(C(=O)O)CCNCC1; Thp = NC1(C(=O)O)CCOCC1; Aib = CC(C)(N)C(=O)O

As to `CC[C@H](C)[C@@H]1NC(=O)[C@H](CC(C)C)NC(=O)C2(CCOCC2)NC(=O)[C@@H](NC(=O)[C@@H](CC(C)C)NC(=O)[C@H](CCC(=O)O)NC(=O)[C@@H]2C[C@@H](O)CN2C(=O)[C@H](Cc2c[nH]c3ccc(Cl)cc23)NC(=O)[C@H](Cc2c[nH]c3ccccc23)NC(=O)[C@H](CC(=O)O)NC(=O)CN2CCC(NC(=O)CN3CCN4CCN5CCN(CC3)CC(=O)[O][Lu]([O]C(=O)C4)[O]C(=O)C5)CC2)CSCc2cccc(n2)CSCCNC1=O` [GIP-162, LuDOTA-APAc-Asp-Trp-5Clw-Hyp-Glu-leu-[Cys(2Lut)-Thp-Leu-Ile-AET]] ({DOTA(Lu)}-[X1]DW[Trp(5-Cl)][Hyp]E[dL]C[Thp]LI; linker 8-C via X6), the IC50 (pIC50 Category) was under 10 nM.

Take `CC[C@H](C)[C@@H]1NC(=O)[C@H](CC(C)C)NC(=O)C(C)(C)NC(=O)[C@@H](NC(=O)[C@@H](CC(C)C)NC(=O)[C@H](CCC(=O)O)NC(=O)[C@@H]2CCCN2C(=O)[C@H](Cc2c[nH]c3ccc(Cl)cc23)NC(=O)[C@H](Cc2c[nH]c3ccccc23)NC(=O)[C@H](CC(=O)O)NC(=O)CCC(=O)NCCCOCCOCCOCCCNC(=O)CN2CCN3CCN4CCN(CC2)CC(=O)[O][Lu]([O]C(=O)C3)[O]C(=O)C4)CSCc2cccc(n2)CSCCNC1=O` [GIP-163, LuDOTA-Ttds-Asp-Trp-5Clw-Pro-Glu-leu-[Cys(2Lut)-Aib-Leu-Ile-AET]] ({X13-Suc}-DW[Trp(5-Cl)]PE[dL]C[Aib]LI; linker 7-C via X6): the IC50 (pIC50 Category) was under 10 nM.

In the case of `CC[C@H](C)[C@@H]1NC(=O)[C@H](CC(C)C)NC(=O)C(C)(C)NC(=O)[C@@H](NC(=O)[C@@H](CC(C)C)NC(=O)[C@H](CCC(=O)O)NC(=O)[C@@H]2CCCN2C(=O)[C@H](Cc2c[nH]c3ccc(Cl)cc23)NC(=O)[C@H](Cc2c[nH]c3ccccc23)NC(=O)[C@H](CC(=O)O)NC(C)=O)CSCc2cccc(c2)CSC[C@@H](C(=O)NCCCOCCOCCOCCCNC(=O)CCC(=O)N[C@@H](CCCCNC(=O)CN2CCN3CCN4CCN(CC2)CC(=O)[O][In]([O]C(=O)C3)[O]C(=O)C4)C(N)=O)NC1=O` [GIP-164, Ac-Asp-Trp-5Clw-Pro-Glu-leu-[Cys(3MeBn)-Aib-Leu-Ile-Cys]-Ttds-Lys(InDOTA)-NH2] (Ac-DW[Trp(5-Cl)]PE[dL]C[Aib]LIC-X14; linker 7-11 via mXylylene), the IC50 under setting [1] is under 10 nM. In the case of `CC[C@H](C)[C@@H]1NC(=O)[C@H](CC(C)C)NC(=O)C(C)(C)NC(=O)[C@@H](NC(=O)[C@@H](CC(C)C)NC(=O)[C@H](CCC(=O)O)NC(=O)[C@@H]2CCCN2C(=O)[C@H](Cc2cccc3ccccc23)NC(=O)[C@H](Cc2c[nH]c3ccccc23)NC(=O)[C@H](CC(=O)O)NC(C)=O)CSCc2cccc(c2)CSC[C@@H](C(=O)NCCCOCCOCCOCCCNC(=O)CCC(=O)N[C@@H](CCCCNC(=O)CN2CCN3CCN4CCN(CC2)CC(=O)[O][In]([O]C(=O)C3)[O]C(=O)C4)C(N)=O)NC1=O` [GIP-165, Ac-Asp-Trp-1Ni-Pro-Glu-leu-[Cys(3MeBn)-Aib-Leu-Ile-Cys]-Ttds-Lys(InDOTA)-NH2] (Ac-DW[1Nal]PE[dL]C[Aib]LIC-X14; linker 7-11 via mXylylene), the IC50 under setting [1] was under 10 nM. Take `CC[C@H](C)[C@@H]1NC(=O)[C@H](CC(C)C)NC(=O)C2(CCCCC2)NC(=O)[C@@H](NC(=O)[C@@H](CC(C)C)NC(=O)[C@H](CCC(=O)O)NC(=O)[C@@H]2CCCN2C(=O)[C@H](Cc2cccc3ccccc23)NC(=O)[C@H](Cc2c[nH]c3ccccc23)NC(=O)[C@H](CC(=O)O)NC(C)=O)CSCc2cccc(c2)CSC[C@@H](C(=O)NCCCOCCOCCOCCCNC(=O)CCC(=O)N[C@@H](CCCCNC(=O)CN2CCN3CCN4CCN(CC2)CC(=O)[O][In]([O]C(=O)C3)[O]C(=O)C4)C(N)=O)NC1=O` [GIP-166, Ac-Asp-Trp-1Ni-Pro-Glu-leu-[Cys(3MeBn)-Egz-Leu-Ile-Cys]-Ttds-Lys(InDOTA)-NH2] (Ac-DW[1Nal]PE[dL]C[Ac6c]LIC-X14; linker 7-11 via mXylylene): the IC50 under setting [1] is under 10 nM. Consider `CC[C@H](C)[C@@H]1NC(=O)[C@H](CC(C)C)NC(=O)C2(CCOCC2)NC(=O)[C@@H](NC(=O)[C@@H](CC(C)C)NC(=O)[C@H](CCC(=O)O)NC(=O)[C@@H]2C[C@@H](O)CN2C(=O)[C@H](Cc2c[nH]c3ccc(Cl)cc23)NC(=O)[C@H](Cc2c[nH]c3ccccc23)NC(=O)CCC(=O)O)CSCc2cccc(n2)CSC[C@@H](C(=O)NC2CCN(CC(=O)N[C@@H](CCCCNC(=O)CN3CCN4CCN5CCN(CC3)CC(=O)[O][In]([O]C(=O)C4)[O]C(=O)C5)C(N)=O)CC2)NC1=O` [GIP-168, HO-Succinyl-Trp-5Clw-Hyp-Glu-leu-[Cys(2Lut)-Thp-Leu-Ile-Cys]-APAc-Lys(InDOTA)-NH2] (Suc-W[Trp(5-Cl)][Hyp]E[dL]C[Thp]LIC[X1]K(DOTA(In))-NH2; linker 6-10 via Pyridine(2,6-diCH2)), for which the IC50 under setting [1] is under 10 nM. On to `CC[C@H](C)[C@@H]1NC(=O)[C@H](CC(C)C)NC(=O)C2(CCOCC2)NC(=O)[C@@H](NC(=O)[C@@H](CC(C)C)NC(=O)[C@H](CCC(=O)O)NC(=O)[C@@H]2C[C@@H](O)CN2C(=O)[C@H](Cc2c[nH]c3ccc(Cl)cc23)NC(=O)[C@H](Cc2c[nH]c3ccccc23)NC(=O)CCC(=O)O)CSCc2cccc(n2)CSC[C@@H](C(=O)NC2CCN(CC(=O)N[C@@H](CCCCNC(=O)CN3CCN4CCN5CCN(CC3)CC(=O)[O][Lu]([O]C(=O)C4)[O]C(=O)C5)C(N)=O)CC2)NC1=O` [GIP-170, HO-Succinyl-Trp-5Clw-Hyp-Glu-leu-[Cys(2Lut)-Thp-Leu-Ile-Cys]-APAc-Lys(LuDOTA)-NH2] (Suc-W[Trp(5-Cl)][Hyp]E[dL]C[Thp]LIC[X1]K(DOTA(Lu))-NH2; linker 6-10 via Pyridine(2,6-diCH2)), for which the IC50 (pIC50 Category) was under 10 nM.

`CC[C@H](C)[C@@H]1NC(=O)[C@H](CC(C)C)NC(=O)C2(CCN(C(=O)CN3CCN4CCN5CCN(CC3)CC(=O)[O][Lu]([O]C(=O)C5)[O]C(=O)C4)CC2)NC(=O)[C@@H](NC(=O)[C@@H](CC(C)C)NC(=O)[C@H](CCC(=O)O)NC(=O)[C@@H]2C[C@@H](O)CN2C(=O)[C@H](Cc2c[nH]c3ccc(Cl)cc23)NC(=O)[C@H](Cc2c[nH]c3ccccc23)NC(=O)CCC(=O)O)CSCc2cccc(n2)CSCCNC1=O` [GIP-171, HO-Succinyl-Trp-5Clw-Hyp-Glu-leu-[Cys(2Lut)-Apc(LuDOTA)-Leu-Ile-AET]] (Suc-W[Trp(5-Cl)][Hyp]E[dL]C[Api](DOTA(Lu))LI; linker 6-C via X6): the IC50 (pIC50 Category) is under 10 nM. Turning to `CC[C@H](C)[C@@H]1NC(=O)[C@H](CC(C)C)NC(=O)C(C)(C)NC(=O)[C@@H](NC(=O)[C@@H](CC(C)C)NC(=O)[C@H](CCC(=O)O)NC(=O)[C@@H]2CCCN2C(=O)[C@H](Cc2cccc3ccccc23)NC(=O)[C@H](Cc2c[nH]c3ccccc23)NC(=O)[C@H](CC(=O)O)NC(C)=O)CSCc2cccc(c2)CSC[C@@H](C(=O)NCCCOCCOCCOCCCNC(=O)CCC(=O)N[C@@H](CCCCNC(=O)CN2CCN3CCN4CCN(CC2)CC(=O)[O][Lu]([O]C(=O)C3)[O]C(=O)C4)C(N)=O)NC1=O` [GIP-172, Ac-Asp-Trp-1Ni-Pro-Glu-leu-[Cys(3MeBn)-Aib-Leu-Ile-Cys]-Ttds-Lys(LuDOTA)-NH2] (Ac-DW[1Nal]PE[dL]C[Aib]LIC-X16; linker 7-11 via mXylylene), the IC50 (pIC50 Category) was 10 to 79.4 nM.

Under “pIC50 Category”, `CC[C@H](C)[C@@H]1NC(=O)[C@H](CC(C)C)NC(=O)C2(CCCCC2)NC(=O)[C@@H](NC(=O)[C@@H](CC(C)C)NC(=O)[C@H](CCC(=O)O)NC(=O)[C@@H]2CCCN2C(=O)[C@H](Cc2cccc3ccccc23)NC(=O)[C@H](Cc2c[nH]c3ccccc23)NC(=O)[C@H](CC(=O)O)NC(C)=O)CSCc2cccc(c2)CSC[C@@H](C(=O)NCCCOCCOCCOCCCNC(=O)CCC(=O)N[C@@H](CCCCNC(=O)CN2CCN3CCN4CCN(CC2)CC(=O)[O][Lu]([O]C(=O)C3)[O]C(=O)C4)C(N)=O)NC1=O` [GIP-173, Ac-Asp-Trp-1Ni-Pro-Glu-leu-[Cys(3MeBn)-Egz-Leu-Ile-Cys]-Ttds-Lys(LuDOTA)-NH2] (Ac-DW[1Nal]PE[dL]C[Ac6c]LIC-X16; linker 7-11 via mXylylene) displayed an IC50 of 10 to 79.4 nM. `CC[C@H](C)[C@@H]1NC(=O)[C@H](CC(C)C)NC(=O)C2(CCOCC2)NC(=O)[C@@H](NC(=O)[C@@H](CC(C)C)NC(=O)[C@H](CCC(=O)O)NC(=O)[C@@H]2C[C@@H](O)CN2C(=O)[C@H](Cc2c[nH]c3ccc(Cl)cc23)NC(=O)[C@H](Cc2c[nH]c3ccccc23)NC(=O)[C@H](CC(=O)O)NC(=O)CCCC(=O)NC[C@H](O)[C@@H](O)[C@H](O)[C@H](O)CO)CSCc2cccc(n2)CSC[C@@H](C(=O)NC2CCN(CC(=O)N[C@H](CCC(=O)NC[C@H](O)[C@@H](O)[C@H](O)[C@H](O)CO)C(N)=O)CC2)NC1=O` [GIP-174, AGLU-Glutar-Asp-Trp-5Clw-Hyp-Glu-leu-[Cys(2Lut)-Thp-Leu-Ile-Cys]-APAc-glu(AGLU)-NH2] ({NH(1-deoxy-D-glucityl)-Glutaryl}-DW[Trp(5-Cl)][Hyp]E[dL]C[Thp]LIC[X1][dE](NH(1-deoxy-D-glucityl))-NH2; linker 7-11 via Pyridine(2,6-diCH2)): the IC50 under setting [1] is under 10 nM.
